Measured values reported in patent US20120128630A1, “1-(6 MEMBERS AZO-HETEROCYCLIC)-PYRROLIN-2-ONE COMPOUNDS AS INHIBITORS OF HEPATITIS C NS5B POLYMERASE, THE PHARAMACEUTICAL COMPOSITION THEREOF AND THEIR THERAPEUTIC USE” (priority 2009, published 2012).

Assays:
HCV replicon Luc Neo ET = assay: Luc Neo ET Replicon assay; format: cell-based, Hepatitis C virus; conditions: Hepatitis C virus, 72 h, Table 3, titled RdRp enzyme assay results, EC50_Replicon LucneoET; 72 hours with compound, luciferase
Protocol: Human Hepatoma Huh-7 cell line was maintained in DMEM/HAMF-12 supplemented with 10% SVF, 4 mM glutamine, […] Na pyruvate, 1% penistreptomycine. HCV replicon containing Huh-7 cell lines Huh-9.13 and Luc Neo ET (Reblikon) were maintained in DMEM supplemented with 10% SVF, 2 mM glutamine, and 1×NEAA, 100 U/ml penicillin, and 100 μg/ml streptomycine. Replicon cells were maintained in medium supplemented with 1 mg/ml G418 for replicon Huh-9.13 and 0.5 mg/ml for Luc Neo et replicon unless indicated otherwise. Huh-7 and HCV replicon cell lines were maintained at 37° C. and 5% CO2 in a humidified atmosphere. Cells were dissociated at sub confluence with trypsin EDTA 1×.
Replicon Luc Neo ET is a bicistronic expression constructs (Lohmann et al, 1999, Science 285, 110-113). In brief, the structural genes of the HCV genome were replaced by heterologous sequences; the gene encoding the neomycin phosphotransferase (NPT) and the internal ribosome entry site (IRES) of the encephalomyocarditis virus (EMCV). The bicistronic construct is therefore composed of the following elements: HCV-IRES nucleotides 1-389, the NPT gene, the EMCV-IRES directing translation of downstream HCV sequences from NS2 or NS3 up to the authentic 3′ end of the genome. HCV Polyprotein harbours the cell culture adaptive mutations E1202G, T1280I, K1846T. G418-resistance is only possible with cells containing high amounts of replicon.
Cells were dissociated the day before addition of compounds and seeded in 96 well-plates at a final concentration of 77 777.77 cells.ml^−1.well^−2 in 90 μl final volume of culture medium per well and were maintained at 37° C. and 5% CO2 in a humidified atmosphere for 24 hours. 10 μl of compounds to be tested were added 24 hours after seeding. Final concentration of DMSO was 1%. Cells were incubated in the presence of compounds for 72 hours after which expression of firefly luciferase reporter gene was quantified. Briefly, culture medium was removed and cells were lysed by addition of 100 μl of lysis buffer containing 125 mM Tris Phosphate ph 7.8, 10 mM EDTA, 5 mM DTT, 50% glycerol and 5% Triton. Plates were vortexed 10 min at 1300 rpm. Cell lysat was transferred in OpaqueWhite Assay 96 well Flat Bottom plates. 100 μl of luciferin solution 1× were added to each well. Luciferin solution contained 40 mM Tris Phosphate ph 7.8, 0.2 mM EDTA, 67 mM DTT, 2.14 mM MgCl2, 5.4 mM MgSO4, 4.7×10^−4 M luciferin, 5.3×10^−4 M ATP and 2.7×10^−4 M Acetyl co enzyme A. Luminescence was immediately measured with Berthold Microlumat Plus LB 96V luminometer with an integration of 0.5 sec Inhibition was calculated using the formula:
% inhibition=1−[(RLUsample−RLUbackground)/(RLUsignal−RLUbackground)]

HCV NS5B genotype 1b = biological target: T1, HCV NS5B genotype 1b (Hepatitis C virus genotype 1b, UniProt Q9WMX2); assay: 3D-SCREEN assay (NS5B 3D-Screen platform, luciferase reporter gene); format: cell-based; conditions: EC50_3DS_NS5B
T1 construct: The protein was expressed with a 21 amino acid C-terminal deletion to remove transmembrane domain; expressed in transfected cells; host or cells: Huh-7
Excerpt: cDNA encoding HCV NS5B genotype 1b, was cloned in frame with Gal4-DNA Binding Domain. The protein was expressed with a 21 amino acid C-terminal deletion to remove transmembrane domain. Expression of NS5BΔ21/Gal4 DBD fusion protein was under control of SV40 early promoter. 3D-Sensor peptide was cloned in frame with VP16 activation domain. Expression of 3D-Sensor/VP16 AD fusion protein was under control of CMV promoter. Expression of the firefly luciferase reporter gene was inducible by the [Target protein/conformation sensitive peptide/VP16AD] complex.
It is a single-target, cell based assay. Briefly, expression of a reporter gene depends on the interaction of a short peptide, thereafter named 3D-Sensor, and native conformation of the target protein. Whenever the conformation of the target protein is modified, interaction between 3D-sensor and target protein is disrupted and reporter gene is not expressed anymore. Conformation modifiers are identified by loss of expression of reporter gene. NS5B 3D-Screen platform was generated in Huh-7 cell lines by transient transfection of three expression vectors encoding respectively
(i) HCV NS5BΔ21/Gal4-DBD fusion protein
(ii) the 3D-sensor peptide I4/VP16 fusion protein
(iii) the firefly luciferase reporter gene
Huh-7 cells were dissociated the day before transfection and seeded in T175 flasks at a density of 10^7 cells in 30 ml culture medium. Equimolar ratios of vectors were transfected in cell according to optimized jetPEI transfection protocol (PolyPlus Transfection, Illkirch, France) and 10 μg total DNA/10^6 cells. Transfection was performed for 2 hours at 37° C. and 5% CO2 in a humidified atmosphere. After two hours cells were dissociated and seeded in 96 wells plates at a density of 25,000 cells per well and 90 μl culture medium. 10 μl of compounds to be tested were added 2 hours after seeding. Final concentration of DMSO was 1%. Cells were incubated in the presence of compounds for 24 hours after which expression of firefly luciferase reporter gene was quantified. Briefly, culture medium was removed and cells were lysed by addition of 100 μl of lysis buffer containing 125 mM Tris Phosphate ph 7.8, 10 mM EDTA, 5 mM DTT, 50% glycerol and 5% Triton. Plates were vortexed 10 min at 1300 rpm. Cell lysat was transferred in OpaqueWhite Assay 96 well Flat Bottom plates. 100 μl of luciferin solution 1× were added to each well. Luciferin solution contained 40 mM Tris Phosphate ph 7.8, 0.2 mM EDTA, 67 mM DTT, 2.14 mM MgCl2, 5.4 mM MgSO4, 4.7×10^−4 M luciferin, 5.3×10^−4 M ATP and 2.7×10^−4 M Acetyl co enzyme A. Luminescence was immediately measured with Berthold Microlumat Plus LB 96V luminometer with an integration of 0.5 sec. Inhibition was calculated using the formula: % inhibition=(1−(read/average max))*100. Average max=signal in absence of compound

[1] = Table 1, 3D-SCREEN assay results, Huh-7 cells, 24 hours with compound, firefly luciferase reporter
[2] = Table 2, titled Replicon assay results

Row | Compound | EC50 (HCV replicon Luc Neo ET) [µM] | EC50 (HCV NS5B genotype 1b; [1]) [µM] | melting point [°C] | EC50 (HCV NS5B genotype 1b; [2]) [µM]
1 | Cc1ccc(C(=O)C2=C(O)C(=O)N(c3ccccn3)C2c2ccc(C(C)(C)C)cc2)cc1 (stereo not shown) [Example 2, 5-(4-tert-butyl-phenyl)-3-hydroxy-4-(4-methyl-benzoyl)-1-pyridin-2-yl-1,5-dihydro-pyrrol-2-one] | < 10 | 9 | – | –
2 | Cc1ccc(C(=O)C2=C(O)C(=O)N(c3ccc(C)nn3)C2c2ccc(OC(C)C)cc2)cc1 (stereo not shown) [Example 33, 3-hydroxy-5-(4-isopropoxy-phenyl)-4-(4-methyl-benzoyl)-1-(6-methyl-pyridazin-3-yl)-1,5-dihydro-pyrrol-2-one] | – | 2 | 268 to 272 | –
3 | Cc1ccc(C(=O)C2=C(O)C(=O)N(c3ccc(N(C)C)nn3)C2c2ccc(C(C)C)cc2)cc1 (stereo not shown) [Example 37, 1-(6-dimethylamino-pyridazin-3-yl)-3-hydroxy-5-(4-isopropyl-phenyl)-4-(4-methyl-benzoyl)-1,5-dihydro-pyrrol-2-one] | – | 9 | 281 | –
4 | Cc1ccc(C(=O)C2=C(O)C(=O)N(c3ccc(C)nn3)C2c2cccc(OC(C)C)c2)cc1 (stereo not shown) [Example 38, 3-hydroxy-5-(3-isopropoxy-phenyl)-4-(4-methyl-benzoyl)-1-(6-methyl-pyridazin-3-yl)-1,5-dihydro-pyrrol-2-one] | – | 10 | 243 to 245 | –
5 | Cc1ccc(C(=O)C2=C(O)C(=O)N(c3ccc(C)cn3)C2c2ccc(C(C)C)cc2)cc1 (stereo not shown) [Example 41, 3-hydroxy-5-(4-isopropyl-phenyl)-4-(4-methyl-benzoyl)-1-(5-methyl-pyridin-2-yl)-1,5-dihydro-pyrrol-2-one] | – | 7 | 259 to 261 | –
6 | Cc1ccc(N2C(=O)C(O)=C(C(=O)c3ccc(C(C)C)cc3)C2c2ccc(N3CCOCC3)cc2)nn1 (stereo not shown) [Example 58, 3-hydroxy-4-(4-isopropyl-benzoyl)-1-(6-methyl-pyridazin-3-yl)-5-(4-morpholin-4-yl-phenyl)-1,5-dihydro-pyrrol-2-one] | – | 5 | 293 to 294 | –
7 | Cc1ccc(N2C(=O)C(O)=C(C(=O)c3ccc(C(C)C)cc3)C2c2ccc(C(C)C)cc2)cn1.Cl (stereo not shown) [Example 66, 5-[3-hydroxy-4-(4-isopropyl-benzoyl)-5-(4-isopropyl-phenyl)-2-oxo-2,5-dihydro-pyrrol-1-yl]-2-methyl-pyridinium; chloride] | – | 2 | 165 | –
8 | COCCOc1ccc(C(=O)C2=C(O)C(=O)N(c3ccc(C)nn3)C2c2ccc(OC(F)(F)F)cc2)cc1 (stereo not shown) [Example 85, 3-Hydroxy-4-[4-(2-methoxy-ethoxy)-benzoyl]-1-(6-methyl-pyridazin-3-yl)-5-(4-trifluoromethoxy-phenyl)-1,5-dihydro-pyrrol-2-one] | – | – | 216 to 219 | < 10
9 | CC(=O)OC1=C(C(=O)c2ccc(C(C)C)cc2)C(c2ccc(OC(F)(F)F)cc2)N(c2ccc(C)nn2)C1=O (stereo not shown) [Example 86, Acetic acid 4-(4-isopropyl-benzoyl)-1-(6-methyl-pyridazin-3-yl)-2-oxo-5-(4-trifluoromethoxy-phenyl)-2,5-dihydro-1H-pyrrol-3-yl ester] | < 1 | – | – | < 0.1
10 | Cc1ccc(N2C(=O)C(O)=C(C(=O)c3ccc(C(C)C)cc3)C2c2ccc(Cl)cc2)nn1 (stereo not shown) [Example 87, 5-(4-chloro-phenyl)-3-hydroxy-4-(4-isopropyl-benzoyl)-1-(6-methyl-pyridazin-3-yl)-1,5-dihydro-pyrrol-2-one] | – | – | 258 to 260 | < 10
11 | Cc1ccc(N2C(=O)C(O)=C(C(=O)c3ccc(OC(F)(F)F)cc3)C2c2ccc(C(C)C)cc2)cn1 (stereo not shown) [Example 94, 3-hydroxy-5-(4-isopropyl-phenyl)-1-(6-methyl-pyridin-3-yl)-4-(4-trifluoromethoxy-benzoyl)-1,5-dihydro-pyrrol-2-one] | < 10 | – | – | < 10
12 | CCOc1ccc(C(=O)C2=C(O)C(=O)N(c3ccc(C)nn3)C2c2ccc(OC(F)(F)F)cc2)cc1 (stereo not shown) [Example 101, 4-(4-ethoxy-benzoyl)-3-hydroxy-1-(6-methyl-pyridazin-3-yl)-5-(4-trifluoromethoxy-phenyl)-1,5-dihydro-pyrrol-2-one] | – | – | 255 to 257 | < 10
13 | Cc1ccc(N2C(=O)C(O)=C(C(=O)c3ccc(C(C)C)cc3)C2c2ccc(OC(C)C)cn2)nn1 (stereo not shown) [Example 121, 3-hydroxy-5-(5-isopropoxy-pyridin-2-yl)-4-(4-isopropyl-benzoyl)-1-(6-methyl-pyridazin-3-yl)-1,5-dihydro-pyrrol-2-one] | – | – | 243 to 245 | < 10
14 | Cc1ccc(N2C(=O)C(O)=C(C(=O)c3ccc(C(F)(F)F)nc3)C2c2ccc(OC(F)(F)F)cc2)nn1 (stereo not shown) [Example 126, 3-hydroxy-1-(6-methyl-pyridazin-3-yl)-5-(4-trifluoromethoxy-phenyl)-4-(6-trifluoromethyl-pyridine-3-carbonyl)-1,5-dihydro-pyrrol-2-one] | – | – | 172 | < 10
15 | Cc1ccc(N2C(=O)C(O)=C(C(=O)c3ccc(C(C)C)cc3)C2c2ccc(N(C)C)cc2)nn1 (stereo not shown) [Example 135, 5-(4-dimethylamino-phenyl)-3-hydroxy-4-(4-isopropyl-benzoyl)-1-(6-methyl-pyridazin-3-yl)-1,5-dihydro-pyrrol-2-one] | – | – | 283 to 286 | < 10
16 | Cc1ccc(N2C(=O)C(O)=C(C(=O)c3ccc(C(C)C)cc3)C2c2ccc(Cn3nccn3)cc2)nn1 (stereo not shown) [Example 147, 3-hydroxy-4-(4-isopropyl-benzoyl)-1-(6-methyl-pyridazin-3-yl)-5-(4-[1,2,3]triazol-2-ylmethyl-phenyl)-1,5-dihydro-pyrrol-2-one] | – | – | 285 | < 10
17 | Cc1ccc(N2C(=O)C(O)=C(C(=O)c3ccc(C(C)C)cc3)[C@@H]2c2ccc(C(F)(F)F)cc2)nn1 [Example 190, 3-hydroxy-4-(4-isopropyl-benzoyl)-1-(6-methyl-pyridazin-3-yl)-5(S)-(4-trifluoromethyl-phenyl)-1,5-dihydro-pyrrol-2-one] | – | – | 252 | < 10
